Consider eleven compounds from patent publication EP0501375A1 (priority 1991, dated 1992).

Test [1] has as its target T1, alkaline protease K-16 (Shouchella clausii, UniProt Q99405). Kind of test: Effects of metal ions on protease activity. The format is biochemical, Bacillus sp. KSM-K16. Conditions: metal salt 1 mM; for Residual Activity: pH 9.5, 30°C for 20 minutes, relative to no metal salt; for effect on activity of the alkaline protease K-16 (in words): 30°C for 20 minutes. As for the experimental part: A 1 ml portion of 50 mM boric acid-NaOH buffer (pH 10) containing 1% casein was mixed with 0.1 ml of enzyme solution, and the mixture was incubated at 40°C for 10 minutes. The reaction was stopped by adding 2 ml of a solution containing 0.123 M trichloroacetic acid, 0.246 M sodium acetate and 0.369 M acetic acid. After allowing to stand at 30°C for 20 minutes, the resulting mixture was filtered through a filter paper (manufactured by Whatman; No. 2), and the filtrate was checked for its contents of proteolytic products in accordance with the modified Folin-Lowry method. One unit of activity (1 P.U.) was defined as the amount of enzyme which produces 1 mmole of tyrosine per minute.
Effects of various metal ions on the activity of the alkaline protease K-16 were examined. A 20 mM boric acid-NaOH buffer (pH 9.5) solution containing 1 mM of a metal salt was mixed with 3.9 x 10⁻³ P.U. of the alkaline protease K-16, and the mixture was maintained at 30°C for 20 minutes. Thereafter, the thus treated mixture was diluted with 50 mM boric acid-NaOH buffer (pH 10.0) by a factor of 5 to measure residual activity which was then calculated as relative value based on the activity measured in the same manner in the absence of metal salts. […] Also, as is evident from the results described in the foregoing items (5) and (6), thermal stability of this enzyme is improved in the presence of Ca²⁺ TABLE 3

Test [2] has as its target T1, alkaline protease K-16. Kind of test: biochemical. The format is biochemical, Bacillus sp. KSM-K16.

*1 amine or outer side, *2 acyl side, *3 side chain or, on linkers, in order; H or OH if unused. Where a SMILES comes first, the peptide text is derived from it. CO = O=C([*:1])[*:2]

T1 sequence (Q99405 112-380): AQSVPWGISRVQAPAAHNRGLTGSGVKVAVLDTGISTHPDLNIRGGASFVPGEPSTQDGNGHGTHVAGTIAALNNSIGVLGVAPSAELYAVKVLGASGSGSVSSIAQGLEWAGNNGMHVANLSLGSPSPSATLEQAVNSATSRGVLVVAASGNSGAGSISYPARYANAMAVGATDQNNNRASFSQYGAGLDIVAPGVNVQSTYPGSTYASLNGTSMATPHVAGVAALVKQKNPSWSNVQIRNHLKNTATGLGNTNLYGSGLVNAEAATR

With `O=[N+]([O-])[O-].[Ag+]` [AgNO₃], the “Residual Activity” value at alkaline protease K-16 [1] is 86%. In the case of `CC(C)[C@H](NC(=O)[C@H](CCCNC(=N)N)NC(=O)N[C@@H](Cc1ccccc1)C(=O)O)C(=O)N[C@H](C=O)CCCNC(=N)N` [Antipain] ({Phe-CO}-Arg-Val-Arg-aldehyde), at alkaline protease K-16 [2] (pH 7), the “Residual Activity” value came to 108%. As to `[Ca+2].[Cl-].[Cl-]` [CaCl₂], the “Residual Activity” value at alkaline protease K-16 [1] was determined as 103%. `CC(C)C[C@H](NC(=O)[C@@H](NC(=O)N[C@@H](Cc1ccccc1)C(=O)O)[C@@H]1CCN=C(N)N1)C(=O)N[C@H](C=O)Cc1ccccc1` [Chymostatin]: at alkaline protease K-16 [2] (pH 7), the “Residual Activity” value was found to be 34% and the “effect on activity of the alkaline protease K-16 (in words)” value (“effect on activity” for short) is reported as “inhibited”. For `[Cl-].[Cl-].[Co+2]` [CoCl₂], the “Residual Activity” value at alkaline protease K-16 [1] came out at 103%. Take `O=S(=O)([O-])[O-].[Cu+2]` [CuSO₄]: on alkaline protease K-16 [1], the “effect on activity” value was “inhibited” and the “Residual Activity” value was determined as 73%. In the case of `O=C(O)CN(CCN(CC(=O)O)CC(=O)O)CC(=O)O` [EDTA], the remaining activity at 5000 µM on alkaline protease K-16 [2] (pH 7, read-out: Residual Activity) came to 107%. Consider `[Cl][Hg][Cl]` [HgCl₂], for which, on alkaline protease K-16 [1], the “effect on activity” value is on record as “inhibited” and the “Residual Activity” value was 46%. As to `[Cl][Ni][Cl]` [NiCl₂], at alkaline protease K-16 [1], the “Residual Activity” value worked out at 103%. For `[Cl][Pb][Cl]` [PbCl₂], at alkaline protease K-16 [1], the “Residual Activity” value stood at 100%. Still for that read-out and setting: with `[Cl-].[Cl-].[Zn+2]` [ZnCl₂] the figure was 106%.
